Source: ChEMBL document CHEMBL4251607, “Antagonists of the adenosine A2A receptor based on a 2-arylbenzoxazole scaffold: Investigation of the C5- and C7-positions to enhance affinity” (Eur J Med Chem, 2018)
Converted amounts (≈) assume the structure as drawn. One block for each compound: values may come before it.

Columns and labels:
Adenosine receptor A2a [1] = target: T1, Adenosine receptor A2a (Homo sapiens, UniProt P29274); assay: Displacement of [3H]-ZM241385 from human adenosine A2A receptor expressed in CHO cell membranes after 1 hr by TopCount microplate scintillation counting method
T1 sequence (P29274 whole entry): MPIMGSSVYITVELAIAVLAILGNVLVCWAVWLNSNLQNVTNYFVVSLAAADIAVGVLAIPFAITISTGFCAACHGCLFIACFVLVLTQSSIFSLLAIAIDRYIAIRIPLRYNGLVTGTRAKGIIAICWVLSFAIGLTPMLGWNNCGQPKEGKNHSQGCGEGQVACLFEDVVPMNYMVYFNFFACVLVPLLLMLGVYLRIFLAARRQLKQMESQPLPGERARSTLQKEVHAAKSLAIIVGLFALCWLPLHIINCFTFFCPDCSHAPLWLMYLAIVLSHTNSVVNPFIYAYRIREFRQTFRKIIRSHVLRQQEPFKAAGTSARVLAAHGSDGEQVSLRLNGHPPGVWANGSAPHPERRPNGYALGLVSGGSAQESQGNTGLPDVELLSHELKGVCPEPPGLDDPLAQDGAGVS

in vitro = conditions: human
Description: Intrinsic clearance in human liver microsomes at 0.1 uM

physchem = conditions: PBS, pH 7.4
SH-SY5Y [2] = assay: Cytotoxicity against human SH-SY5Y cells assessed as cell death after 72 hrs by MTT assay; assay type: cell-based
[3] = Apparent permeability from basolateral to apical side in human Caco2 cells at 10 uM after 40 mins; conditions: Caco-2
[4] = Protein binding in human plasma at 10 uM after 4 hrs
[5] = Half life in human liver microsomes at 0.1 uM
[6] = Apparent permeability from apical to basolateral side in human Caco2 cells at 10 uM after 40 mins; conditions: Caco-2
Adenosine receptor A2a [7] = target: T1, Adenosine receptor A2a; assay: Antagonist activity at human adenosine A2A receptor expressed in HEK293 cell membranes assessed as inhibition of […]-induced [35S]GTPgammaS binding preincubated for 10 mins followed by […] addition by TopCount scintillation counting method; assay type: functional
SH-SY5Y [8] = assay: Cytotoxicity against human SH-SY5Y cells assessed as cell death at 10 uM after 72 hrs by MTT assay relative to control; assay type: cell-based
Adenosine receptor A2a [9] = target: T1, Adenosine receptor A2a; assay: Displacement of [3H]-ZM241385 from human adenosine A2A receptor expressed in HEK293 cell membranes after 1 hr by scintillation counting method
Adenosine receptor A2a [10] = target: T1, Adenosine receptor A2a; assay: Antagonist activity at adenosine A2A receptor (unknown origin)
[11] = target: T2, Adenosine receptor A3 (Homo sapiens) (UniProt P0DMS8); assay: Displacement of [125I]ABMECA from human adenosine A3 receptor expressed in HEK293 cell membranes at 10 uM relative to control
T2 sequence (whole entry): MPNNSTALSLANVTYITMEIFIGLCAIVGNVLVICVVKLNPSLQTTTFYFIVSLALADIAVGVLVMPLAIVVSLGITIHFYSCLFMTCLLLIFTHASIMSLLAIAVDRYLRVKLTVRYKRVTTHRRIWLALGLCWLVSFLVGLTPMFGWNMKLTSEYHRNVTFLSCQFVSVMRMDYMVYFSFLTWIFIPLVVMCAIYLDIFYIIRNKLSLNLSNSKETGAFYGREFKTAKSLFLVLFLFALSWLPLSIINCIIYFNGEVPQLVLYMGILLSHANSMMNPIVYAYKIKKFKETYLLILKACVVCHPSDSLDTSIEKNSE

[12] = target: T3, Adenosine receptor A2b (Homo sapiens) (UniProt P29275); assay: Displacement of [3H]CPX from human adenosine A2B receptor expressed in HEK293 cell membranes at 10 uM relative to control
T3 sequence (whole entry): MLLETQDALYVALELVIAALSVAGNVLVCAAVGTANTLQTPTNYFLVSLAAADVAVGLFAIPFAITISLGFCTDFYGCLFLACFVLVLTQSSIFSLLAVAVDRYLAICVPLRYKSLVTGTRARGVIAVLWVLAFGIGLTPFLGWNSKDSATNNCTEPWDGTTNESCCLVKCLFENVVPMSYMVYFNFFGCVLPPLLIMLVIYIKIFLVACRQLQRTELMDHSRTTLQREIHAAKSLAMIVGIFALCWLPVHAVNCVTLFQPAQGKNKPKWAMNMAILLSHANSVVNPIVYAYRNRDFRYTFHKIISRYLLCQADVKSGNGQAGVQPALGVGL

Adenosine receptor A1 = target: T4, Adenosine receptor A1 (Homo sapiens, UniProt P30542); assay: Displacement of [3H]DPCPX from human adenosine A1 receptor expressed in CHO cell membranes
T4 sequence (P30542 whole entry): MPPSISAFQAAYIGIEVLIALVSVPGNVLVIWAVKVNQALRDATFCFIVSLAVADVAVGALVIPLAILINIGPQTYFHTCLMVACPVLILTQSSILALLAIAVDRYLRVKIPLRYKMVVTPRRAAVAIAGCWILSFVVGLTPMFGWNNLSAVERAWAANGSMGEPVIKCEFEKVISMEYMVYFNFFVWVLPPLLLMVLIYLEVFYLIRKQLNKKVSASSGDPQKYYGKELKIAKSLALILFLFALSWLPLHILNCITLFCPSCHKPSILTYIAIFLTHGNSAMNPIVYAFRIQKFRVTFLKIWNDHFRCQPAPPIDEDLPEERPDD

Structure (SMILES): Nc1cc(NC(=O)CN2CCCCC2)cc2nc(-c3ccco3)oc12
Ki (Adenosine receptor A2a [1]): 480 nM
IC50 (Adenosine receptor A2a [7]): 250 nM

Structure (SMILES): Cc1ccc(-c2cc(N)cc3nc(-c4ccco4)oc23)cc1
Ki (Adenosine receptor A2a [1]): > 10000 nM

Structure (SMILES): O=C(CN1CCCCC1)Nc1ccc2oc(-c3ccco3)nc2c1
Ki (Adenosine receptor A2a [1]): 1000 nM
Activity (SH-SY5Y [8]): 0%
Ki (Adenosine receptor A2a [9]): 1000 nM

Structure (SMILES): O=C(CCN1CCc2ccccc2C1)Nc1cc(-c2ccco2)c2oc(-c3ccco3)nc2c1
Ki (Adenosine receptor A2a [1]): 30 nM
microsomal CLint at 0.1 µM (in vitro; liver microsomes): < 115 µL/min/mg
solubility at 24 h (physchem): 8 µM (≈ 3.63 µg/mL)
Activity (SH-SY5Y [8]): 37%
fraction unbound at 4 h, 10 µM [4]: 0.001
half-life at 0.1 µM ([5]; liver microsomes): > 1 h
Papp A→B at 40 min, 10 µM [6]: 0.2 ×10⁻⁶ cm/s

Structure (SMILES): Nc1cc(-c2ccccc2)c2oc(-c3ccco3)nc2c1
Ki (Adenosine receptor A2a [1]): 202 nM

Structure (SMILES): Nc1cc(-c2ccc(C(F)(F)F)cc2)c2oc(-c3ccco3)nc2c1
Ki (Adenosine receptor A2a [1]): > 10000 nM

Structure (SMILES): O=C(CCN1CCOCC1)Nc1cc(-c2ccco2)c2oc(-c3ccco3)nc2c1
Ki (Adenosine receptor A2a [1]): 90 nM
microsomal CLint at 0.1 µM (in vitro; microsomes): < 115 µL/min/mg
solubility at 24 h (physchem): 173 µM (≈ 70.5 µg/mL)
IC50 (SH-SY5Y [2]): 77000 nM
Papp B→A at 40 min, 10 µM [3]: 1.6 ×10⁻⁶ cm/s
fraction unbound at 4 h, 10 µM [4]: 0.02
half-life at 0.1 µM ([5]; microsomes): > 1 h
Papp A→B at 40 min, 10 µM [6]: 11 ×10⁻⁶ cm/s

Structure (SMILES): Nc1cc(-c2ccc(F)cc2)c2oc(-c3ccco3)nc2c1
Ki (Adenosine receptor A2a [1]): 438 nM

Structure (SMILES): Nc1ccc2oc(-c3ccco3)nc2c1
Ki (Adenosine receptor A2a [1]): 10000 nM
Ki (Adenosine receptor A2a [9]): 10000 nM

Structure (SMILES): COCCOc1ccc(N2CCN(CCn3ncc4c3nc(N)n3nc(-c5ccco5)nc43)CC2)cc1 [PRELADENANT]
Ki (Adenosine receptor A2a [10]): 0.5 nM

Structure (SMILES): Nc1cc(-c2ccco2)c2oc(-c3ccco3)nc2c1
Ki (Adenosine receptor A2a [1]): 40 nM
microsomal CLint at 0.1 µM (in vitro; liver microsomes): < 115 µL/min/mg
solubility at 24 h (physchem): 31 µM (≈ 8.25 µg/mL)
inhibition [11]: 90%
IC50 (SH-SY5Y [2]): 40000 nM
Papp B→A at 40 min, 10 µM [3]: 37 ×10⁻⁶ cm/s
IC50 (Adenosine receptor A2a [7]): 70.6 nM
fraction unbound at 4 h, 10 µM [4]: 0.1
half-life at 0.1 µM ([5]; liver microsomes): > 1 h
inhibition [12]: 94%
Papp A→B at 40 min, 10 µM [6]: 77 ×10⁻⁶ cm/s
Ki (Adenosine receptor A1): 7.7 nM

Structure (SMILES): Nc1cc(NC(=O)CN2CCCCC2)c2oc(-c3ccco3)nc2c1
Ki (Adenosine receptor A2a [1]): > 10000 nM

Continued, in another order:

Ki (Adenosine receptor A2a [1]): 81 nM
microsomal CLint at 0.1 µM (in vitro; liver microsomes): 172 µL/min/mg
solubility at 24 h (physchem): 165 µM (≈ 66.9 µg/mL)
Papp B→A at 40 min, 10 µM [3]: 1.2 ×10⁻⁶ cm/s
fraction unbound at 4 h, 10 µM [4]: 0.02
half-life at 0.1 µM ([5]; liver microsomes): 0.683 h
Papp A→B at 40 min, 10 µM [6]: 2.3 ×10⁻⁶ cm/s
Structure (SMILES): O=C(CCN1CCCCC1)Nc1cc(-c2ccco2)c2oc(-c3ccco3)nc2c1
IC50 (SH-SY5Y [2]): 9000 nM

Ki (Adenosine receptor A2a [1]): 90 nM
Structure (SMILES): COc1ccc(-c2cc(N)cc3nc(-c4ccco4)oc23)cc1OC

Ki (Adenosine receptor A2a [1]): 71 nM
Structure (SMILES): Nc1cc(-c2cccs2)c2oc(-c3ccco3)nc2c1

Ki (Adenosine receptor A2a [1]): 210 nM
IC50 (Adenosine receptor A2a [7]): 486 nM
Structure (SMILES): O=C(CN1CCCCC1)Nc1cc(-c2ccco2)c2oc(-c3ccco3)nc2c1

Ki (Adenosine receptor A2a [1]): 135 nM
Structure (SMILES): Nc1cc(-c2ccccn2)c2oc(-c3ccco3)nc2c1

Ki (Adenosine receptor A2a [1]): 98 nM
Structure (SMILES): O=C(CCCN1CCCCC1)Nc1cc(-c2ccco2)c2oc(-c3ccco3)nc2c1

Ki (Adenosine receptor A2a [1]): > 10000 nM
Structure (SMILES): Nc1cc(N2CCOCC2)c2oc(-c3ccco3)nc2c1

Ki (Adenosine receptor A2a [1]): > 10000 nM
Structure (SMILES): COc1ccc(-c2cc(NC(=O)CCN3CCc4ccccc4C3)cc3nc(-c4ccco4)oc23)cc1OC

Ki (Adenosine receptor A2a [1]): > 10000 nM
Structure (SMILES): CCOCCOc1ccc(N2CCN(CCC(=O)Nc3cc(-c4ccco4)c4oc(-c5ccco5)nc4c3)CC2)cc1
